According to patent US7163946B2 (Ligand Pharmaceuticals Incorporated, priority 2002, dated 2007):
Read-outs that look alike come from different tables or passages of the source.

Target: T1, hPR (Homo sapiens, UniProt P06401)
T1 sequence (P06401 1-933): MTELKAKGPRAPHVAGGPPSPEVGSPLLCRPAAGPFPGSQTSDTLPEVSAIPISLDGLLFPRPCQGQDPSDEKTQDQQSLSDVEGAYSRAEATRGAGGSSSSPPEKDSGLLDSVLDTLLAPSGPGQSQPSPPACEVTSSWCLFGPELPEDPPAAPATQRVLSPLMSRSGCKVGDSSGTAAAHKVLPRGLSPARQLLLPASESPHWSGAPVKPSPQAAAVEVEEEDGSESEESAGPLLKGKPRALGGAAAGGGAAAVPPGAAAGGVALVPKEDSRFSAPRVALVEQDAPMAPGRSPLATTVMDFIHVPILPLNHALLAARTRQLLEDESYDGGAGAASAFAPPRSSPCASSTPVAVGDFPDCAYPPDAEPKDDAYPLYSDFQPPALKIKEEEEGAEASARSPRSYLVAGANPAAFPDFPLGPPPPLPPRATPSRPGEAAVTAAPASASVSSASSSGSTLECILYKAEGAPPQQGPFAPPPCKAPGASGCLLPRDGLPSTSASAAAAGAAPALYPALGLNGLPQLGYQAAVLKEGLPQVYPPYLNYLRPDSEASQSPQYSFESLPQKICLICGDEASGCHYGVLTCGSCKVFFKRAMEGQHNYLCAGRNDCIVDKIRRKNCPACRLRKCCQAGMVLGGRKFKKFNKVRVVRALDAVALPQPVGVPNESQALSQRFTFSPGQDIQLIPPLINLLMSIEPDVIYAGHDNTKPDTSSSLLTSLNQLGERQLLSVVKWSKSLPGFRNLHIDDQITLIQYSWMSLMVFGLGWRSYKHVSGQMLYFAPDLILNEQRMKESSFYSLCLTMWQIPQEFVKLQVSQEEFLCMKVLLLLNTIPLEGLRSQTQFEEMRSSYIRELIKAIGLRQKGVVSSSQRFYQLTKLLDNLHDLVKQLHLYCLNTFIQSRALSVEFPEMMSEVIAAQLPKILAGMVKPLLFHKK
Experiment: hPR cotransfection assay in CV-1 cells, agonist mode
Format: cell-based
Details: Tables 3 and 4, values without footnote

[1] = read-out: hPR agonist potencies (EC50 in nM) in the cotransfection assay
[2] = hPR agonist potencies (EC50 in nM) in the cotransfection assay

Procedure: Antagonist efficacy was determined as a function (%) of maximal inhibition of a reference agonist at EC50 concentration. All the cotransfection experiments were carried out in 96-well plates by automation (Beckman Biomomek automated workstation).

Row | SMILES | EC50 [1] | EC50 [2]
1 | CC1=CC(C)(C)Nc2ccc3c(c21)C(c1ccc2c(c1)OCO2)Oc1c(F)cc(F)cc1-3 (racemic) [Compound 35, (±)-7,9-difluoro-5-(1,3-benzodioxol-5-yl)-1,2-dihydro-2,2,4-trimethyl-5H-chromeno[3,4-f]quinoline] | 3.85 nM | 
2 | CC1=CC(C)(C)Nc2ccc3c(c21)C(c1ccc(Br)cc1)Oc1c(F)cc(F)cc1-3 (racemic) [Compound 36, (±)-7,9-difluoro-5-(4-bromophenyl)-1,2-dihydro-2,2,4-trimethyl-5H-chromeno[3,4-f]quinoline] | 4.96 nM | 
3 | CC1=CC(C)(C)Nc2ccc3c(c21)C(c1cccc(F)c1)Oc1c(F)cc(F)cc1-3 (racemic) [Compound 40, (±)-7,9-difluoro-5-(3-fluorophenyl)-1,2-dihydro-2,2,4-trimethyl-5H-chromeno[3,4-f]quinoline] | 6.66 nM | 
4 | CC1=CC(C)(C)Nc2ccc3c(c21)C(c1cccc(Br)c1)Oc1c(F)cc(F)cc1-3 (racemic) [Compound 42, (±)-7,9-difluoro-5-(3-bromophenyl)-1,2-dihydro-2,2,4-trimethyl-5H-chromeno[3,4-f]quinoline] | 3.65 nM | 
5 | CC1=CC(C)(C)Nc2ccc3c(c21)C(c1ccc(Cl)cc1)Oc1c(F)cc(F)cc1-3 (racemic) [Compound 43, (±)-7,9-difluoro-5-(4-chlorophenyl)-1,2-dihydro-2,2,4-trimethyl-5H-chromeno[3,4-f]quinoline] | 5.1 nM | 
6 | CC1=CC(C)(C)Nc2ccc3c(c21)C(C)Oc1c(F)cc(F)cc1-3 (racemic) [Compound 44, (±)-7,9-difluoro-1,2-dihydro-2,2,4,5-tetramethyl-5H-chromeno[3,4-f]quinoline] |  | 1.4 nM
7 | CCC1Oc2c(F)cc(F)cc2-c2ccc3c(c21)C(C)=CC(C)(C)N3 (racemic) [Compound 46, (±)-7,9-difluoro-5-ethyl-1,2-dihydro-2,2,4-trimethyl-5H-chromeno[3,4-f]quinoline] | 6.93 nM | 
8 | CCCCC1Oc2c(F)cc(F)cc2-c2ccc3c(c21)C(C)=CC(C)(C)N3 (racemic) [Compound 52, (±)-7,9-difluoro-5-butyl-1,2-dihydro-2,2,4-trimethyl-5H-chromeno[3,4-f]quinoline] | 15 nM | 
9 | C=CCC1Oc2c(F)cc(F)cc2-c2ccc3c(c21)C(C)=CC(C)(C)N3 (racemic) [Compound 55, (±)-7,9-difluoro-5-allyl-1,2-dihydro-2,2,4-trimethyl-5H-chromeno[3,4-f]quinoline] | 3.6 nM | 
10 | CC1=CC(C)(C)Nc2ccc3c(c21)C(c1cccc(C(F)(F)F)c1)Oc1c(F)cc(F)cc1-3 (racemic) [Compound 56, (±)-7,9-difluoro-5-[3-(trifluoromethyl)phenyl]-1,2-dihydro-2,2,4-trimethyl-5H-chromeno[3,4-f]quinoline] | 1.6 nM | 
11 | CC1=CC(C)(C)Nc2ccc3c(c21)/C(=C/c1ccccc1Cl)Oc1c(F)cc(F)cc1-3 [Compound 13, 7,9-difluoro-5(Z)-(2-chlorobenzylidene)-1,2-dihydro-2,2,4-trimethyl-5H-chromeno[3,4-f]quinoline] | 1.92 nM | 
12 | CC1=CC(C)(C)Nc2ccc3c(c21)/C(=C/c1ccc(F)cc1)Oc1c(F)cc(F)cc1-3 [Compound 16, 7,9-difluoro-5(Z)-(4-fluorobenzylidene)-1,2-dihydro-2,2,4-trimethyl-5H-chromeno[3,4-f]quinoline] | 3.7 nM | 
13 | CC1=CC(C)(C)Nc2ccc3c(c21)/C(=C/c1cccc(F)c1C)Oc1c(F)cc(F)cc1-3 [Compound 21, 7,9-difluoro-5(Z)-(2-methyl-3-fluorobenzylidene)-1,2-dihydro-2,2,4-trimethyl-5H-chromeno[3,4-f]quinoline] | 8.2 nM | 
14 | CC1=CC(C)(C)Nc2ccc3c(c21)/C(=C/c1ccccc1C)Oc1c(F)cc(F)cc1-3 [Compound 81, 7,9-difluoro-5(Z)-(2-methylbenzylidene)-1,2-dihydro-2,2,4-trimethyl-5H-chromeno[3,4-f]quinoline] | 1.66 nM | 
15 | CC1=CC(C)(C)Nc2ccc3c(c21)C(c1cccc(C(F)(F)F)c1)Oc1ccc(Cl)cc1-3 (stereo not shown) [Formula I X=9-Cl 3-CF3-Ph, reference compound] | 7.4 nM | 
16 | CC1=CC(C)(C)Nc2ccc3c(c21)C(c1ccc(Cl)c(C)c1)Oc1ccc(Cl)cc1-3 (stereo not shown) [Formula I X=9-Cl 4-Cl-3-Me-Ph, reference compound] | 9.4 nM | 
17 | C=CCC1Oc2ccc(F)cc2-c2ccc3c(c21)C(C)=CC(C)(C)N3 (stereo not shown) [Formula I X=9-F Allyl, reference compound] | 7.5 nM | 
18 | CCC1Oc2ccc(F)cc2-c2ccc3c(c21)C(C)=CC(C)(C)N3 (stereo not shown) [Formula I X=9-F Et, reference compound] | 9 nM | 
19 | CC1=CC(C)(C)Nc2ccc3c(c21)C(c1cccc(Cl)c1)Oc1ccc(C)cc1-3 (stereo not shown) [Formula I X=9-Me 3-Cl-Ph, reference compound] | 4.85 nM | 
20 | CC1=CC(C)(C)Nc2ccc3c(c21)C(c1cccc(C)c1)Oc1ccc(C)cc1-3 (stereo not shown) [Formula I X=9-Me 3-Me-Ph, reference compound] | 44 nM | 

Row | SMILES | EC50 [1] | EC50 [2]
21 | CC1=CC(C)(C)Nc2ccc3c(c21)C(c1ccc(Cl)c(C)c1)Oc1ccc(C)cc1-3 (stereo not shown) [Formula I X=9-Me 4-Cl-3-Me-Ph, reference compound] |  | 7.45 nM
22 | COc1ccc2c(c1)-c1ccc3c(c1C(c1cccc(C)c1)O2)C(C)=CC(C)(C)N3 (stereo not shown) [Formula I X=9-OMe 3-Me-Ph, reference compound] | 11 nM | 
23 | CC1=CC(C)(C)Nc2ccc3c(c21)C(c1cccc(C)c1)Oc1ccccc1-3 (stereo not shown) [Formula I X=H 3-Me-Ph, reference compound] | 145 nM | 
24 | CC1=CC(C)(C)Nc2ccc3c(c21)C(c1ccc2c(c1)OCO2)Oc1ccccc1-3 (stereo not shown) [Formula I X=H Benzodioxol-5-yl, reference compound] | 48 nM | 
25 | CC1=CC(C)(C)Nc2ccc3c(c21)/C(=C/c1ccccc1)Oc1c(Cl)cccc1-3 [Formula II X=7-Cl Phenyl, reference compound] | 6.2 nM | 
26 | CC1=CC(C)(C)Nc2ccc3c(c21)/C(=C/c1cc(F)ccc1C)Oc1cc(F)c(F)cc1-3 [Formula II X=8,9-diF 2-Me-5-F-Ph, reference compound] | 3.95 nM | 
27 | CC1=CC(C)(C)Nc2ccc3c(c21)/C(=C/c1ccccc1C)Oc1cc(F)c(F)cc1-3 [Formula II X=8,9-diF 2-Me-Ph, reference compound] | 13 nM | 
28 | CC1=CC(C)(C)Nc2ccc3c(c21)/C(=C/c1ccccc1C)Oc1cc(F)ccc1-3 [Formula II X=8-F 2-Me-Ph, reference compound] | 13 nM | 
29 | CC1=CC(C)(C)Nc2ccc3c(c21)/C(=C/c1cccc(F)c1)Oc1cc(F)ccc1-3 [Formula II X=8-F 3-F-Ph, reference compound] | 109 nM | 
30 | CC1=CC(C)(C)Nc2ccc3c(c21)/C(=C/c1ccccc1)Oc1cc(F)ccc1-3 [Formula II X=8-F Phenyl, reference compound] | 187 nM | 
31 | CC1=CC(C)(C)Nc2ccc3c(c21)/C(=C/c1cc(F)ccc1F)Oc1cc(O)ccc1-3 [Formula II X=8-OH 2,5-diF-Ph, reference compound] | 10 nM | 
32 | COc1ccc2c(c1)O/C(=C\c1ccccc1Cl)c1c-2ccc2c1C(C)=CC(C)(C)N2 [Formula II X=8-OMe 2-Cl-Ph, reference compound] | > 1000 nM | 
33 | COc1ccc2c(c1)O/C(=C\c1ccccc1F)c1c-2ccc2c1C(C)=CC(C)(C)N2 [Formula II X=8-OMe 2-F-Ph, reference compound] | 45 nM | 
34 | COc1ccc2c(c1)O/C(=C\c1ccccc1C)c1c-2ccc2c1C(C)=CC(C)(C)N2 [Formula II X=8-OMe 2-Me-Ph, reference compound] | 3.5 nM | 
35 | COc1ccc2c(c1)O/C(=C\c1ccccc1OC)c1c-2ccc2c1C(C)=CC(C)(C)N2 [Formula II X=8-OMe 2-MeO-Ph, reference compound] | 24 nM | 
36 | COc1ccc2c(c1)O/C(=C\c1cccc(F)c1)c1c-2ccc2c1C(C)=CC(C)(C)N2 [Formula II X=8-OMe 3-F-Ph, reference compound] | 8.6 nM | 
37 | COc1ccc2c(c1)O/C(=C\c1ccncc1C)c1c-2ccc2c1C(C)=CC(C)(C)N2 [Formula II X=8-OMe 3-Me-4-pyridinyl, reference compound] | 24 nM | 
38 | COc1ccc2c(c1)O/C(=C\c1ccncc1)c1c-2ccc2c1C(C)=CC(C)(C)N2 [Formula II X=8-OMe 4-pyridinyl, reference compound] | 36 nM | 
39 | COc1ccc2c(c1)O/C(=C\c1ccccc1)c1c-2ccc2c1C(C)=CC(C)(C)N2 [Formula II X=8-OMe Phenyl, reference compound] | 5.5 nM | 
40 | CC1=CC(C)(C)Nc2ccc3c(c21)/C(=C/c1cc(F)ccc1F)Oc1ccc(Cl)cc1-3 [Formula II X=9-Cl 2,5-diF-Ph, reference compound] | 25 nM | 
